# “And” between values parts separate entries of the source, which are not always exact repeats. Identical values can stand only once.
# Key:
# potassium channels [1] = target: potassium channels (Cavia porcellus, UniProt A0A286XYR9); assay: Membrane hyperpolarization (MHP) assay in primary cultured guinea-pig urinary bladder (GPB) cells, DiBAC(4)3 FLIPR; assay type: cell-based; details: for MHP in GPB Cells Maximal Response (% P1075): maximal steady-state hyperpolarization relative to reference P1075 (assigned as 100%); for EC50: concentration that elicits 50% of the maximal response for the test sample
# Method: Determination of Potassium Channel Opening Activity Membrane Hyperpolarization Assays Compounds were evaluated for potassium channel opening activity using the rat thoracic aorta smooth muscle AI 0 cell line or primary cultured guinea-pig urinary bladder (GPB) cells. The AI0 cell line was purchased from the American Type Culture Collection (Rockville, MD; Cat # 30-2002). […] Louis, MO) and 0.2 mg/mL ronase (Calbiochem, La Jolla, CA) with continuous stirring in a cell incubator for 30 minutes. The mixture was then centrifuged at 1300 x g for 5 minutes, and the pellet resuspended in Dulbecco's PBS (GIBCO, Gaithersburg, MD) and recentrifuged to remove residual enzyme. […] Cells were confirmed to be of smooth muscle type by cytoskeletal staining using a monoclonal mouse anti human-a-smooth muscle actin (Biomeda, Foster City, CA). Functional activity at potassium channels was measured by evaluating changes in membrane potential using the bis-oxonol dye DiBAC(4)3 (Molecular Probes) in a 96-well cell-based kinetic assay system, Fluorescent Imaging Plate Reader (FLIPR) (K.S. Schroeder et al., J. Biomed. Screen., v. I pp. 75-81 (1996)). DiBAC(4)3 is an anionic potentiometric probe which partitions between cells and extracellular solution in a membrane potential-dependent manner. With increasing membrane potential (for example, K+depolarization), the probe further partitions into the cell; this is measured as an increase in fluorescence due to dye interaction with intracellular lipids and proteins. Conyersely, decreasing membrane potential (hyperpolarization by potassium channel openers) evokes a decrease in fluorescence. […] HEPES, 20; NaCl, 120; KCl, 2; CaC'2, 2; MgCl2, 1; glucose, 5; pH 7.4 at 25 ° C.) containing 5 µM DiBAC(4)3 and incubated with […] of the buffer in a cell incubator for 30 minutes at 37 OC to ensure dye distribution across the membrane. After recording the baseline fluorescence for 5 minutes, the reference or test compounds, prepared at 10 times the concentration in the assay buffer, were added directly to the wells. Changes in fluorescence were monitored for an additional 25 minutes. […] Pharmacol., v. 43 pp. 474-481 (1993)). Routinely, five concentrations of […] or test compounds (log or half-log dilutions) were evaluated and the maximal steady-state hyperpolarization values (expressed as % relative to […]) plotted as a function of concentration. […] The maximal response of each compound (expressed as % relative to […]) is reported.
# potassium channels [2] = target: potassium channels (Sus scrofa, UniProt F1SR11); assay: Functional potassium channel opening activity in isolated Landrace pig bladder strips (field-stimulated twitch); details: for Landrace Pig Bladder Index: ED50 for P1075 divided by ED50 for the test agonist, averaged over tissues; for Landrace Pig Bladder pD2: negative logarithm of ED50; for Emax: pig
# Outline: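 Landrace pig bladder strips with the mucosa removed were field-stimulated (0.05 Hz, 0.5 ms, 20 V) in Krebs Ringer bicarbonate containing propranolol, and primed with 80 mM KCl. Cumulative concentration-response curves gave maximal efficacy relative to a reference potassium channel opener, pD2, and a potency index (reference ED50/test ED50) averaged across tissues.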
# [3] = maximal efficacy relative to P1075, field stimulation 0.05Hz, 0.5 milli-seconds at 20 volts
# Chain of potassium channels (Cavia porcellus, UniProt A0A286XYR9) (A0A286XYR9 1-1546): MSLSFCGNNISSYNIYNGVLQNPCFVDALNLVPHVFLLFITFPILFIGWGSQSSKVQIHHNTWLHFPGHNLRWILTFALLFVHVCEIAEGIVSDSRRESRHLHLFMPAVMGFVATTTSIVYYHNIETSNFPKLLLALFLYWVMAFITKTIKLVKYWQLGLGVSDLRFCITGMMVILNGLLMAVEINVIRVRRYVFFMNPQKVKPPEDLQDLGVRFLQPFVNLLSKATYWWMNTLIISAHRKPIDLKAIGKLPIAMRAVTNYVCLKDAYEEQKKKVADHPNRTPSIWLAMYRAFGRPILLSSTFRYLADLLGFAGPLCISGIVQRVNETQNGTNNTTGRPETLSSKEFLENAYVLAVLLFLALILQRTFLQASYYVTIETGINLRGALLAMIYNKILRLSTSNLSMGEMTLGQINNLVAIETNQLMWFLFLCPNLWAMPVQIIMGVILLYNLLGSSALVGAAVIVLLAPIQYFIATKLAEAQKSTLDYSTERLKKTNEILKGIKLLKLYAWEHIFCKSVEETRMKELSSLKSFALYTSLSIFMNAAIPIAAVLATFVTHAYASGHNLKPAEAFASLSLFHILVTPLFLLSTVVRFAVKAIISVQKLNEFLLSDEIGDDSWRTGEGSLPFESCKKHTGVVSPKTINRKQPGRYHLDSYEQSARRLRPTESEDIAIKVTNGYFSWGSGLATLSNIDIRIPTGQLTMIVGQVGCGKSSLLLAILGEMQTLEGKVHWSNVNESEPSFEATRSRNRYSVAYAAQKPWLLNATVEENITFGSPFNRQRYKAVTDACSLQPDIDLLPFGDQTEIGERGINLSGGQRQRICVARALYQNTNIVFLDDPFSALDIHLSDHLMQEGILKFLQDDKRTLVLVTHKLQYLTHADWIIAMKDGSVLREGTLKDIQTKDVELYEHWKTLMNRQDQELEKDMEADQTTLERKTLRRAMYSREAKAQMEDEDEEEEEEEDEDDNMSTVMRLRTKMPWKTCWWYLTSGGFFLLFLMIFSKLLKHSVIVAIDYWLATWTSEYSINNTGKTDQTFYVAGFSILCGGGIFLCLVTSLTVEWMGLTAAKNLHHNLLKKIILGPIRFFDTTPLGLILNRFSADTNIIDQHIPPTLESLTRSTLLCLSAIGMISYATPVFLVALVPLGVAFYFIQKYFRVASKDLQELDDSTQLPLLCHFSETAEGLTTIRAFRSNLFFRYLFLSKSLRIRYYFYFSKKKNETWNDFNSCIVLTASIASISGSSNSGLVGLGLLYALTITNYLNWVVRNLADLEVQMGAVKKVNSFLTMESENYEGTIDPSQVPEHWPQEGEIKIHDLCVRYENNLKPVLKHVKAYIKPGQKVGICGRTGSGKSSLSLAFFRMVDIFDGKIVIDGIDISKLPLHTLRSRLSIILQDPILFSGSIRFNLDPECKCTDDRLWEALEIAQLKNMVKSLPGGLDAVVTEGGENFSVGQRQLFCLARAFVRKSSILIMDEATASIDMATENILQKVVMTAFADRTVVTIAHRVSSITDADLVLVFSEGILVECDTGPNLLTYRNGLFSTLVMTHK
# Chain of potassium channels (Cavia porcellus, UniProt A0A286XYR9) (Q9JHJ9 whole entry partner): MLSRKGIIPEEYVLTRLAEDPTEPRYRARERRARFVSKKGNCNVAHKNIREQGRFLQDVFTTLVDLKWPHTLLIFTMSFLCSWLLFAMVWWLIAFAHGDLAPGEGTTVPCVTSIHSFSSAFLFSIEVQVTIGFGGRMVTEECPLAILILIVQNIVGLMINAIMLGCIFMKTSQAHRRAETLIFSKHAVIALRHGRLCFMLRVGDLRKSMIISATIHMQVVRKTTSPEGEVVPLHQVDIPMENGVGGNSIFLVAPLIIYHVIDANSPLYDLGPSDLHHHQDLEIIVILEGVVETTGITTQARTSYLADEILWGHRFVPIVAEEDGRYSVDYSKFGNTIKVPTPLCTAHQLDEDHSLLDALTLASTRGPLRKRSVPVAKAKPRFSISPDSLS
Compound,MHP in GPB Cells Maximal Response (% P1075) (potassium channels [1]),Landrace Pig Bladder Index (potassium channels [2]),Landrace Pig Bladder pD2 (potassium channels [2]),melting point,Emax (potassium channels [2]; [3]),EC50 (potassium channels [1]),Landrace Pig Bladder Efficacy (% P1075) (potassium channels [2]; [3])
"8-(3-bromo-4-fluorophenyl)-6-trifluoromethyl-5,8-dihydrothiopyrano[3 .2-b]pyridine, 1,1-dioxide [Example 159]",100 % P1075,–,–,–,–,–,–
"O=S1(=O)CCCC2=C1C(c1ccc(F)c(Br)c1)C1=C(CCCS1(=O)=O)N2 [Example 54, 10-(3-bromo-4-fluorophenyl)-3,4,6,7,8,10-hexahydro-2H,5H-dithiopyrano [3,2-b:2′,3′-e]pyridine, 1,1,9,9-tetraoxide]",107 % P1075 and 133 % P1075,0.015,4.9,–,–,–,89 % P1075
O=S1(=O)CCC2=C1C(c1ccc(F)c(Cl)c1)C1=C(CCS1(=O)=O)N2 [Example 74],–,0.081,6.1,> 260 °C,100%,–,–
"O=C1CCCC2=C1C(c1ccc(F)c(Cl)c1)C1=C(CCS1(=O)=O)N2 (centres unmarked) [Example 81, 9-(3-chloro-4-fluorophenyl)-2,3,5,6,7,9-hexahydrothieno [3.2-b]quinolin-8(4H)-one, 1 1-dioxide]",–,0.39,6.4,> 260 °C,91%,–,–
"CC1=C(C(=O)O)C(c2ccc(F)c(Br)c2)C2=C(CCS2(=O)=O)N1 (centres unmarked) [Example 106, 7-(3-bromo-4-fluorophenyl)-5-methyl-2,3,4,7-tetrahydrothieno[3.2-b]pyridine-6-carboxylic acid, 1,1-dioxide]",–,0.014,5.1,220 to 223 °C,98%,–,–
O=S1(=O)CCC2=C1C(c1ccc3nonc3c1)C1=C(CCS1(=O)=O)N2 [Example 123],–,0.0047,4.5,> 260 °C,98%,–,–
O=S1(=O)CCC2=C1C(c1ccc(Br)c(Br)c1)C1=C(CCS1(=O)=O)N2 [Example 124],–,0.025,5.3,> 260 °C,99%,–,–

# More lines, main results first:
MHP in GPB Cells Maximal Response (% P1075) (potassium channels [1]),Landrace Pig Bladder Index (potassium channels [2]),Landrace Pig Bladder pD2 (potassium channels [2]),melting point,Emax (potassium channels [2]; [3]),EC50 (potassium channels [1]),Compound,Landrace Pig Bladder Efficacy (% P1075) (potassium channels [2]; [3])
–,0.12,6.3,> 260 °C,94%,–,"CC(=O)C1=C(C)NC2=C(C1c1ccc(F)c(Br)c1)S(=O)(=O)CCC2 (centres unmarked) [Example 66, 1-[8-(3-bromo-4-fluorophenyl)-3,4,5,8-tetrahydro-6-methyl-1.-dioxido-2H-thiopyrano[3,2-b]pyridin-7-yl)lethan-1-one]",–
–,0.15,6.3,251 to 254 °C,100%,–,O=C1CCC2=C1C(c1ccc([N+](=O)[O-])s1)C1=C(CCS1(=O)=O)N2 (centres unmarked) [Example 70],–
–,0.0022,4.4,248 to 252 °C,98%,–,O=[N+]([O-])c1cccc(C2C3=C(CCS3(=O)=O)NC3=C2S(=O)(=O)CC3)c1 [Example 73],–
–,0.046,5.5,> 260 °C,93%,–,O=S1(=O)CCC2=C1C(c1ccc(Cl)c(Cl)c1)C1=C(CCS1(=O)=O)N2 [Example 77],–
–,0.015,5.2,208 to 210 °C,100%,–,CC1=C(C(=O)O)C(c2ccc(F)c(Br)c2)C2=C(CCCS2(=O)=O)N1 (centres unmarked) [Example 107],–
–,0.16,6.3,> 270 °C,100%,–,"CC1(C)CCC2=C(C1=O)C(c1ccc(F)c(Br)c1)C1=C(CCS1(=O)=O)N2 (centres unmarked) [Example 116, 9-(3-bromo-4-fluorophenyl)-7,7-dimethyl-2,3,5,6,7,9-hexahydrothieno[3.2-b]quinolin-8(4H)-one, 1,1-dioxide]",–
–,0.012,4.8,> 260 °C,94%,–,O=S1(=O)CCC2=C1C(c1ccc(Cl)c(C(F)(F)F)c1)C1=C(CCS1(=O)=O)N2 [Example 122],–
51 % P1075,–,–,–,–,10 µM,"CC1(C)CCC2=C(C1=O)C(c1cccc([N+](=O)[O-])c1)C1=C(CCS1(=O)=O)N2 (centres unmarked) [Example 189, 7,7-dimethyl-9-(3-nitrophenyl)-2,3,5,6,7,,9-hexahydrothieno[3.2-b]guinolin-8(4H)-one 1,1-dioxide]",–
12 % P1075,–,–,–,–,> 10 µM,"CC1(C)CCC2=C(C1=O)C(c1cc(Cl)cc(Br)c1O)C1=C(CCS1(=O)=O)N2 (centres unmarked) [Example 199, 9-(3-bromo-5-chloro-2-hydroxyphenyl)-7,7-dimethyl-2,3.5.6,7,9-hexahydrothieno[3.2-b]quinolin-8(4H)-one 1,1-dioxide]",–
92 % P1075,–,–,–,–,1.2 µM,CC1(C)CCC2=C(C1=O)C(c1cc(Br)c(O)c(Br)c1)C1=C(CCS1(=O)=O)N2 (centres unmarked) [Example 207],–

# From US6593335B1, “Potassium channel openers” (Abbott Laboratories, priority 1997, dated 2003)
